Here are results for 17 compounds from patent US9371336B2, “Compounds for treating spinal muscular atrophy” (PTC Therapeutics Inc., priority 2012, dated 2016).

In general, melting point refers to the temperature, or range, at which the solid turns liquid.

For series [1], the system named is SMN2 minigene mRNA (SMN2-A minigene construct). The experiment in a line: SMN2 minigene mRNA splicing RT-qPCR assay in cultured cells. The note with it: Homo sapiens, HEK293-H; HEK293H cells stably transfected with SMN2-A minigene, 24 hours, 7-point concentration data; concentration giving 1.5-fold SMN2 full length mRNA relative to vehicle-treated cells; read-out: EC1.5x for production of full length SMN2 mRNA. It is filed as cell-based, human. The procedure, abridged:
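Full-length SMN2 minigene mRNA, measured by exon 7/luciferase-specific RT-qPCR that excludes endogenous SMN1/SMN2, was normalized to GAPDH and expressed relative to vehicle-treated cells via modified ΔΔCt. Stably transfected HEK293H cells received compound (7-point, 3.16-fold series, duplicates) for 24 h at 37 °C.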
For orientation: In qPCR the cycle at which signal appears reflects the starting amount.

In a further series the test system is Smn protein. The experiment in a line: Smn protein assay (HTRF) in cultured cells (SMA patient fibroblasts GM03813). It is filed as cell-based, human. The note with it: 48 hours; for EC1.5x for Smn protein expression: SMA patient fibroblast cells (GM03813), HTRF, 7-point concentration data, concentration producing 1.5 times Smn protein vs DMSO vehicle control; for maximum fold (Fold) increase of Smn protein: SMA patient fibroblast cells, 7-point concentration curve, relative to vehicle control. The procedure, abridged: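 SMA patient fibroblasts (GM03813) were treated 48 h at 37° C with a 7-point, 3.16-fold compound series in triplicate, then lysed in RIPA. Smn was read by HTRF (anti-SMN d2/kryptate, 665/620 nm ratio). ΔF versus blank was divided by vehicle ΔF to give fold Smn increase.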

The structures appear in SMILES notation. A value given as a limit tells only on which side of the number the result lay.

Compound `Cc1cc(F)c2nc(-c3cc4ccc(N5CCCNCC5)nc4oc3=O)cn2c1.Cl` [Cpd 107, 7-(1,4-diazepan-1-yl)-3-(8-fluoro-6-methylimidazo[1,2-a]pyridin-2-yl)-2H-pyrano[2,3-b]pyridin-2-one hydrochloride] registered a melting point of 276 to 279 °C. For the same compound, the EC (1.5-fold) in series [1] is at most 0.1 µM. In the series with Smn protein, the “EC1.5x for Smn protein expression” value is “*** (an EC1.5× between >0.3 μM and ≦1 μM is indicated by three stars (***))”; the “maximum fold (Fold) increase of Smn protein” value (from here on “maximum fold (Fold) increase”) is “**** (a fold increase between >1.5 and ≦1.65 is indicated by four stars (****))”.
In turn, `C[C@H]1CN(c2ccc3cc(-c4cn5ccccc5n4)c(=O)oc3n2)CCN1C` [Cpd 81, 7-[(3S)-3,4-dimethylpiperazin-1-yl]-3-(imidazo[1,2-a]pyridin-2-yl)-2H-pyrano[2,3-b]pyridin-2-one] returned a melting point of 213 to 216 °C. In addition, the EC (1.5-fold) in series [1] lay in the range of 0.1 to 0.3 µM. In addition, in the series on Smn protein, the “EC1.5x for Smn protein expression” value is “**** (an EC1.5×≦0.3 μM is indicated by four stars (****))” and the “maximum fold (Fold) increase” value is recorded as “***** (a fold increase >1.65 is indicated by five stars (*****))”.
In turn, `CCN1CCN(c2ccc3cc(-c4cn5cccc(Cl)c5n4)c(=O)oc3n2)CC1` [Cpd 133, 3-(8-chloroimidazo[1,2-a]pyridin-2-yl)-7-(4-ethylpiperazin-1-yl)-2H-pyrano[2,3-b]pyridin-2-one] showed a melting point of 218 to 221 °C. The EC (1.5-fold) in series [1] was at most 0.1 µM. In the series on Smn protein, the “EC1.5x for Smn protein expression” value was “*** (an EC1.5× between >0.3 μM and ≦1 μM is indicated by three stars (***))”; the “maximum fold (Fold) increase” value is “*** (a fold increase between >1.35 and ≦1.5 is indicated by three stars (***))”.
In turn, `CN1CCN(c2ccc3cc(-c4nc5ccccc5s4)c(=O)oc3n2)CC1` [Cpd 3, 3-(1,3-benzothiazol-2-yl)-7-(4-methylpiperazin-1-yl)-2H-pyrano[2,3-b]pyridin-2-one] had a melting point of 247 to 250 °C. Also, the EC (1.5-fold) in series [1] lay within 0.3 to 1 µM. In addition, in the series with Smn protein, the “EC1.5x for Smn protein expression” value is “* (An EC1.5× for Smn protein expression between >3 μM and ≦10 μM is indicated by one star (*))”; the “maximum fold (Fold) increase” value was “*** (a fold increase between >1.35 and ≦1.5 is indicated by three stars (***))”.
`Cc1ccn2nc(-c3cc4ccc(N5CCN(C)CC5)nc4oc3=O)cc2c1` [Cpd 53, 7-(4-methylpiperazin-1-yl)-3-(5-methylpyrazolo[1,5-a]pyridin-2-yl)-2H-pyrano[2,3-b]pyridin-2-one] came in with a melting point of 264 to 268 °C. Also, the EC (1.5-fold) in series [1] was in the range of 0.1 to 0.3 µM. In the series on Smn protein, the “maximum fold (Fold) increase” value was “*** (a fold increase between >1.35 and ≦1.5 is indicated by three stars (***))”.
On to `CCCN1CCN(c2ccc3cc(-c4nc(C)cs4)c(=O)oc3n2)CC1` [Cpd 21, 3-(4-methyl-1,3-thiazol-2-yl)-7-(4-propylpiperazin-1-yl)-2H-pyrano[2,3-b]pyridin-2-one], for which the melting point was in the range of 210 to 214 °C. In addition, in series [1], the EC (1.5-fold) was in the range of 3 to 30 µM. In addition, in the series on Smn protein, the “maximum fold (Fold) increase” value is reported as “* (A maximum fold increase ≦1.2 is indicated by one star (*))”.
`C[C@H]1CN(c2ccc3cc(-c4cn5cccc(F)c5n4)c(=O)oc3n2)CCN1C` [Cpd 69, 7-[(3S)-3,4-dimethylpiperazin-1-yl]-3-(8-fluoroimidazo[1,2-a]pyridin-2-yl)-2H-pyrano[2,3-b]pyridin-2-one]: the melting point fell in the range of 222 to 225 °C. In addition, the EC (1.5-fold) in series [1] was at most 0.1 µM. In the series with Smn protein, the “EC1.5x for Smn protein expression” value was “**** (an EC1.5×≦0.3 μM is indicated by four stars (****))” and the “maximum fold (Fold) increase” value is listed as “***** (a fold increase >1.65 is indicated by five stars (*****))”.
Turning to `CN1CCN(c2ccc3cc(-c4cn5ccsc5n4)c(=O)oc3n2)CC1` [Cpd 54, 3-(imidazo[2,1-b][1,3]thiazol-6-yl)-7-(4-methylpiperazin-1-yl)-2H-pyrano[2,3-b]pyridin-2-one], the melting point lay within 268 to 272 °C. In addition, in series [1], the EC (1.5-fold) is 0.1 to 0.3 µM. In the series on Smn protein, the “EC1.5x for Smn protein expression” value was “*** (an EC1.5× between >0.3 μM and ≦1 μM is indicated by three stars (***))”; the “maximum fold (Fold) increase” value is “**** (a fold increase between >1.5 and ≦1.65 is indicated by four stars (****))”.
`Cc1ccc2nc(-c3cc4ccc(N5CCNCC5)nc4oc3=O)cn2c1.Cl` [Cpd 24, 3-(6-methylimidazo[1,2-a]pyridin-2-yl)-7-(piperazin-1-yl)-2H-pyrano[2,3-b]pyridin-2-one hydrochloride] showed a melting point of 218 to 222 °C. For the same compound, the EC (1.5-fold) in series [1] lay in the range of 0.3 to 1 µM. Besides, in the series with Smn protein, the “maximum fold (Fold) increase” value is “** (a fold increase between >1.2 and ≦1.35 is indicated by two stars (**))”.
As to `CCCN1CCN(c2ccc3cc(-c4nc5c(Cl)cccc5s4)c(=O)oc3n2)CC1` [Cpd 13, 3-(4-chloro-1,3-benzothiazol-2-yl)-7-(4-propylpiperazin-1-yl)-2H-pyrano[2,3-b]pyridin-2-one], the melting point was in the range of 251 to 254 °C. Further, the EC (1.5-fold) in series [1] lay within 1 to 3 µM. The “maximum fold (Fold) increase” value in the series with Smn protein was “*** (a fold increase between >1.35 and ≦1.5 is indicated by three stars (***))”.
`CCN1CCCN(c2ccc3cc(-c4cn5cccc(F)c5n4)c(=O)oc3n2)CC1` [Cpd 139, 7-(4-ethyl-1,4-diazepan-1-yl)-3-(8-fluoroimidazo[1,2-a]pyridin-2-yl)-2H-pyrano[2,3-b]pyridin-2-one] showed a melting point of 189 to 191 °C. Besides, the EC (1.5-fold) in series [1] was at most 0.1 µM. Besides, in the series with Smn protein, the “EC1.5x for Smn protein expression” value was “**** (an EC1.5×≦0.3 μM is indicated by four stars (****))”; the “maximum fold (Fold) increase” value was “**** (a fold increase between >1.5 and ≦1.65 is indicated by four stars (****))”.
`C[C@@H]1CN[C@@H](C)CN1c1ccc2cc(-c3cn4cccc(Cl)c4n3)c(=O)oc2n1` [Cpd 94, 3-(8-chloroimidazo[1,2-a]pyridin-2-yl)-7-[(2R,5S)-2,5-dimethylpiperazin-1-yl]-2H-pyrano[2,3-b]pyridin-2-one]: the melting point lay in the range of 172 to 175 °C. Also, in series [1], the EC (1.5-fold) was at most 0.1 µM. Also, in the series with Smn protein, the “EC1.5x for Smn protein expression” value is recorded as “**** (an EC1.5×≦0.3 μM is indicated by four stars (****))”; the “maximum fold (Fold) increase” value is “**** (a fold increase between >1.5 and ≦1.65 is indicated by four stars (****))”.
`CN1CCCN(c2ccc3cc(-c4cn5ccsc5n4)c(=O)oc3n2)CC1` [Cpd 114, 3-(imidazo[2,1-b][1,3]thiazol-6-yl)-7-(4-methyl-1,4-diazepan-1-yl)-2H-pyrano[2,3-b]pyridin-2-one] gave a melting point of 224 to 226 °C. Moreover, the EC (1.5-fold) in series [1] is at most 0.1 µM. Further, in the series on Smn protein, the “EC1.5x for Smn protein expression” value is “*** (an EC1.5× between >0.3 μM and ≦1 μM is indicated by three stars (***))”; the “maximum fold (Fold) increase” value is “**** (a fold increase between >1.5 and ≦1.65 is indicated by four stars (****))”.
`CCN1CCN(c2ccc3cc(-c4cn5cc(C)cc(F)c5n4)c(=O)oc3n2)C[C@@H]1C` [Cpd 137, 7-[(3S)-4-ethyl-3-methylpiperazin-1-yl]-3-(8-fluoro-6-methylimidazo[1,2-a]pyridin-2-yl)-2H-pyrano[2,3-b]pyridin-2-one] showed a melting point of 239 to 243 °C. Further, the EC (1.5-fold) in series [1] is at most 0.1 µM. For the same compound, in the series with Smn protein, the “EC1.5x for Smn protein expression” value is “*** (an EC1.5× between >0.3 μM and ≦1 μM is indicated by three stars (***))”; the “maximum fold (Fold) increase” value was “**** (a fold increase between >1.5 and ≦1.65 is indicated by four stars (****))”.
The compound `C[C@@H]1CN(c2ccc3cc(-c4cn5ccccc5n4)c(=O)oc3n2)CCN1C` [Cpd 82, 7-[(3R)-3,4-dimethylpiperazin-1-yl]-3-(imidazo[1,2-a]pyridin-2-yl)-2H-pyrano[2,3-b]pyridin-2-one] gave a melting point of 216 to 219 °C. Besides, the EC (1.5-fold) in series [1] lay in the range of 0.1 to 0.3 µM. Moreover, in the series on Smn protein, the “EC1.5x for Smn protein expression” value is “*** (an EC1.5× between >0.3 μM and ≦1 μM is indicated by three stars (***))”; the “maximum fold (Fold) increase” value is “**** (a fold increase between >1.5 and ≦1.65 is indicated by four stars (****))”.
`Cl.O=c1oc2nc(N3CCCNCC3)ccc2cc1-c1cn2ccccc2n1` [Cpd 45, 7-(1,4-diazepan-1-yl)-3-(imidazo[1,2-a]pyridin-2-yl)-2H-pyrano[2,3-b]pyridin-2-one hydrochloride] showed a melting point of 265 to 267 °C. In addition, in series [1], the EC (1.5-fold) lay within 0.1 to 0.3 µM. In addition, in the series on Smn protein, the “EC1.5x for Smn protein expression” value was “*** (an EC1.5× between >0.3 μM and ≦1 μM is indicated by three stars (***))”; the “maximum fold (Fold) increase” value was “**** (a fold increase between >1.5 and ≦1.65 is indicated by four stars (****))”.
The compound `Cc1cn2cc(-c3cc4ccc(N5C[C@@H](C)N[C@@H](C)C5)nc4oc3=O)nc2c(C)n1` [Cpd 90, 3-(6,8-dimethylimidazo[1,2-a]pyrazin-2-yl)-7-[(3R,5S)-3,5-dimethylpiperazin-1-yl]-2H-pyrano[2,3-b]pyridin-2-one] displayed a melting point of 279 to 282 °C. For the same compound, the EC (1.5-fold) in series [1] was at most 0.1 µM. Moreover, in the series on Smn protein, the “EC1.5x for Smn protein expression” value is reported as “**** (an EC1.5×≦0.3 μM is indicated by four stars (****))” and the “maximum fold (Fold) increase” value is listed as “***** (a fold increase >1.65 is indicated by five stars (*****))”.
